Drawing on PubChem BioAssay AID602296 (Broad Institute, 2012), this text covers AC40 for 45 compounds.

Molecules are shown by their SMILES. Records with an inconclusive call do not appear. Active and inactive are the calls of the source.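 The calls were made as follows: active = fitted activation curve crossing 40% at a concentration no higher than the sample's top valid tested dose; inconclusive = flat fitted curve at 30% to 70% activation, or poor curve fit; inactive = signal decrease, flat curve within 30%, or the rest.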

This test concerns NIH3T3-HGL HSF-1 response element luciferase, 48 h. As to the kind of experiment: sustained heat shock response element induction – cell-based, mouse, luciferase, cherry-pick, dose, confirmation (AID 602296).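 Also: test compounds applied by themselves with no MG132 co-treatment.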
As for `CCOc1ncccc1C(=O)NCCc1c[nH]c2ccccc12`, the AC40 is > 26 µM (inactive).
For the compound `COC(=O)C(C)Sc1nc2c(c(=O)n(C)c(=O)n2C)n1CCC(C)C` (stereo not given), the AC40 is > 26 µM (inactive).
Take `CCC(C)(C)c1ccc(OC(=O)c2cccnc2Cl)cc1`: the AC40 is > 26 µM (inactive).
For `CCN(CC)C(=O)CSc1ncnc2sc(C)c(C)c12`, the AC40 is > 26 µM (inactive).
Turning to `O=C(CSc1cccc2cccnc12)N/N=C/c1cccnc1`, the AC40 was > 26 µM (inactive).
For the compound `O=C1C=C(c2ccccc2)CC(/C=C/c2ccccc2)C1` (stereo not given), the AC40 was 18 µM.
The value for `COc1ccc(/C=C(\C#N)C(=O)Nc2cccc(C)n2)cc1` was > 26 µM (inactive); that for `CC1=CC(=O)C=C(C)C1=NOC(=O)/C=C\c1ccccc1` was > 26 µM (inactive).
In the case of `CC1(C)CC(=O)C(=Cc2cn(-c3ccccc3)nc2-c2ccccc2)C(=O)C1`, the AC40 was 14 µM.
In the case of `Cc1cc(C(=O)N2CCN(c3ccccn3)CC2)c(C)o1`, the AC40 is > 26 µM (inactive).
In the case of `COC(=O)C1(O)CC(CC(C)C)=NN1C(=O)c1ccccc1` (stereo not given), the AC40 is 20.3 µM.
Regarding `S=C(Nc1ccccc1)Nc1ccc(Cl)cn1`, the AC40 is 21 µM.
With `CC1=Nc2ccccc2/C1=C/c1nc(-c2ccc(C)s2)oc1O`, the AC40 was 10.1 µM.
Regarding `CCCn1c(SCc2nc3sc(C)c(C)c3c(=O)[nH]2)nc2ccccc2c1=O`, the AC40 was > 26 µM (inactive).
In the case of `COCCCn1c(Cc2csc(Nc3ccc(F)cc3)n2)nnc1SCC(N)=O`, the AC40 is > 26 µM (inactive).
For the compound `CN1CCN(NC(=O)/C=C/c2ccc(Br)cc2)CC1`, the AC40 is > 26 µM (inactive).
The value for `CC1(C)c2cc(O)ccc2OC1N1CCOCC1` (stereo not given) was > 26 µM (inactive); that for `COc1cc(OC)cc(-c2nnc(Sc3ccc(C=O)cc3[N+](=O)[O-])o2)c1` was > 26 µM (inactive); that for `Cc1cc(-c2ccc(C(C)C)c(S(=O)(=O)NCCN3CCC(C)CC3)c2)on1` was > 26 µM (inactive).
As to `O=C(N/N=C/c1ccncc1)c1cc2ccccc2cc1O`, the AC40 was 25.2 µM.
Take `COc1cccc(NC(=S)NC(=O)c2c(Cl)c(C)nn2C)c1`: the AC40 was 2.51 µM.
With `Cc1ccccc1CSc1nsc(N)n1`, the AC40 is 16.5 µM.
Take `Cc1onc(-c2ccccc2)c1C(=O)N=C(N)c1ccc(C(F)(F)F)cc1`: the AC40 is > 26 µM (inactive).
For the compound `COc1ccc(C)cc1-n1c(=O)c2ccccc2c2ccccc2c1=O`, the AC40 is > 26 µM (inactive).
With `COc1ccc(-c2nc(C#N)c(N3CCCCC3)o2)cc1`, the AC40 is > 26 µM (inactive).
With `O=[N+]([O-])c1ccc(-c2csc(Nc3ccccc3)[n+]2Cc2ccccc2)cc1`, the AC40 was 10.9 µM.
Then `Cc1[nH]c2ccccc2c1/C=C(\C#N)C(=O)NCC1CCCO1` (stereo not given), with 9.18 µM; and `COc1cccc(CNC(=O)Cn2nc(C)c([N+](=O)[O-])c2C)c1`, with > 26 µM (inactive); and `CN(C)c1nc(N)nc(CSc2nnnn2-c2ccc(F)cc2)n1`, with > 26 µM (inactive).
In the case of `Cc1ccc(=O)n(C(C(=O)NCc2ccco2)C(=O)c2ccc(F)cc2)c1` (stereo not given), the AC40 is > 26 µM (inactive).
For the compound `COC(=O)Cn1c(=O)c2c(nc3n2CC(C)CN3CCc2ccccc2)n(C)c1=O` (stereo not given), the AC40 was > 26 µM (inactive).
With `Cc1cccc(N2C(=O)C(O)=C(C(=O)c3cccs3)C2c2ccc(C(C)C)cc2)n1` (stereo not given), the AC40 is 9.04 µM.
As to `Cc1cccc(N2CCN(c3cccc(C)c3)C2c2cccnc2)c1`, the AC40 is > 12 µM (inactive).
As to `Cc1nc(/C(N)=N/OC(=O)Cc2ccccc2)no1`, the AC40 is 22.2 µM.
Then `COc1ccc(/C=C/C(=O)OC2CCCN(C)C2)cc1` (stereo not given), with 12.6 µM; and `CC(C)=NN1C(=O)c2ccccc2NC1(C)C`, with > 26 µM (inactive); and `O=C(NNc1c(Cl)cccc1Cl)C1CCC1`, with 23.5 µM.
For the compound `CCc1ccc(CN2C(=O)c3ccccc3C2C(=O)NCC2CCCO2)cc1` (stereo not given), the AC40 was > 26 µM (inactive).
Consider `CCOC(=O)c1c(C)n(-c2ccc(C)cc2)c2c(CC(C)=O)c(Br)c(OC)c(O)c12`, for which the AC40 is > 26 µM (inactive).
Consider `COCCCN(CC(=O)O)S(=O)(=O)c1cccc(Cl)c1`, for which the AC40 is > 26 µM (inactive).
In the case of `C#CC[N+]1(CC#Cc2ccccc2)CCCCC1`, the AC40 is > 26 µM (inactive).
`Cc1ccc2cccc(NC(=O)C(F)(F)F)c2n1`: the AC40 was > 26 µM (inactive).
`Cc1ccccc1CC(=O)NC1CCCc2ccccc21` (stereo not given): the AC40 was > 26 µM (inactive).
As to `C=CCNC(=S)N/N=C/c1ccc(-c2ccc(Br)cc2)o1`, the AC40 was 22 µM.
The value for `c1ccc(CCc2ccncc2)cc1` was > 26 µM (inactive).
